The assay addresses serotonin reuptake (Rattus norvegicus, UniProt P31652). The assay is described as follows: in vitro serotonin reuptake inhibition assay (Paracelsian). In kind it is biochemical.

Where a name gives a salt, the structure may show the parent alone.

serotonin reuptake, sequence (P31652 whole entry): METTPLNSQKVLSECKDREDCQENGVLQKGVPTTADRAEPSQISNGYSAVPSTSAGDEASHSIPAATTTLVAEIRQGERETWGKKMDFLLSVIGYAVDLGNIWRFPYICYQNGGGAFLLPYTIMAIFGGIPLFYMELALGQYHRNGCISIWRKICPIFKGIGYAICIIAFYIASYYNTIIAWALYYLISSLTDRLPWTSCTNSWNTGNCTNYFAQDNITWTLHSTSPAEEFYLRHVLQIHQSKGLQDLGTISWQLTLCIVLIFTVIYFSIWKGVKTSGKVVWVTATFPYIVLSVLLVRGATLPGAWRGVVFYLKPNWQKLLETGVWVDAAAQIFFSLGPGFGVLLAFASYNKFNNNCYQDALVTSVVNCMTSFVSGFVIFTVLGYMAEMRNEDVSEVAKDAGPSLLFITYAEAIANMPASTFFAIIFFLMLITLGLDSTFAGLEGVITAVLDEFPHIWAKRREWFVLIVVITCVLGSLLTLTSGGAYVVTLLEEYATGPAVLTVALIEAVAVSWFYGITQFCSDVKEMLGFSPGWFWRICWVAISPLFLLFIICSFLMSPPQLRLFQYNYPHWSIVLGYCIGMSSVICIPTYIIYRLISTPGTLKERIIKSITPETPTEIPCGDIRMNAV
Protocol: The bioassay was performed in quadruplicate by Paracelsian, Inc., Ithaca, N.Y. and were all in compliance with our standard operating protocols, having a standard deviation less than ±5%.

As for `Cc1cc(O)c2c(=O)c3c(O)cc(O)c4c5c(O)cc(O)c6c(=O)c7c(O)cc(C)c8c1c2c(c34)c(c78)c65` [Hypericin (Sigma), hypericin], the “Serotonin Reuptake Inhibition (%)” value (sample weight 2 μg) is 0.0%.
On the same count and under the same terms, the figure for hyperforin [Hyperforin (Aphios)] is 80.3%.
Regarding `CN(C)CCCN1c2ccccc2CCc2ccccc21` [Imipramine (Sigma), imipramine hydrochloride], the “Serotonin Reuptake Inhibition (%)” value (sample weight 65 ng) came out at 38.3%.

Values taken from US20060240098A1, “Formulations for hyperforin-enriched hypericum fractions” (Aphios Corporation, priority 2004, published 2006).
